The text below walks through data of publication PMC12390126, “Human Skin Permeation of Ethoxy- and Propoxypropanol Commonly Found in Water-Based Products” (Toxics, 2025).

Each structure is given as a SMILES string. “Also recorded” adds a separate entry of the source.

Details of data set [1]: method as in earlier work. Conditions: cited from earlier work.
Data set [2] in a line: In vitro flow-through diffusion cell skin permeation. In kind it is in vitro ADME, human. As to conditions: for first quantified in the receptor fluid after application: Figure 1A, first 3 h of exposure; for permeability rate J diluted in water compared to neat: aqueous 50:50 versus neat; for time to permeate previously frozen human skin: aqueous PGEs applied. The text has this: Human abdominal full thickness skin was obtained as surgical waste from the Lausanne University Hospital (CHUV) and the Department of Musculoskeletal Medicine (DAL) Biobank, Switzerland, according to the Swiss ethics in the canton Vaud (CER-VD: Commission cantonal d’éthique de la recherche sur l’être humain, ethical protocol 264/12). The surgeon obtained written consent from the patients before the start of the operation. The collected skin was anonymized, and only sex and age were provided for this study. Human skin was obtained directly after the surgery and immediately dermatomed to a thickness of 800 µm (Acculan®II, B. Braun/Aesculap, Sempach, Switzerland) to account for any potential storage effects on its in vitro mass balance. The experiments were run with triplicate skin samples (n = 3) from three different donors giving a total of nine samples for each experiment. The skin samples used for this study were stored at −20 °C for up to four years. The experiments were performed only when a sufficient number of skin samples was available from three different donors.
The in vitro flow-through diffusion cell experiments were used to assess skin permeation kinetics after neat and aqueous application, separately. The abdominal human frozen skin was thawed for one hour at room temperature and cut into disks (exposed area of 1 cm^2). These were mounted onto the diffusion cells between the donor and the receptor chamber filled with saline water (0.9% NaCl (aq), 8 mL). Four different experimental conditions were used: application of solutions containing either PGEE or PGPE (neat) and application of aqueous solutions of PGEE or PGPE (50:50 v/v mixture). Each experiment was performed with triplicate cells from three different donors ([…] diffusion cells exposed to PGE per experimental condition) and one control cell per skin donor (n = 3 diffusion cells not exposed to PGE). The trans epidermal water loss (TEWL; VapoMeter wireless, Delfin Technologies Ltd., Kuopio, Finland) was measured for each skin disk to assess skin sample integrity. Skin samples with a TEWL greater than 11 g/m^2/h were excluded. TEWL was measured again at the end of each experiment to confirm skin integrity throughout the experiment.
The in vitro flow-through diffusion cell experiments were carried out using a rack-mounted system consisting of nine in-line jacketed flow-through diffusion cells (PermeGear® from SES Analytical System, Bechenheim, Germany). A peristaltic pump (Ismatec IPC-N, IDEX Health and Science GmbH, Wertheim-Mondfeld, Germany) operated at a flow rate of 200 µL/min for the first 180 min to ensure that the transition point—when the glycol ethers reached the receptor fluid—was accurately captured for these rapidly diffusing substances. The pump rate was then adjusted to 40 µL/min for the remaining time until 24 h. These collection times and flow rates were set to achieve steady state. The diffusion cell system was equipped with a magnetic stirrer in each cell to ensure a constant and uniform mixing of the substances in the reservoir fluid. The diffusion cells were kept at 32 °C with a heated water bath (Haake SC 100 Digital Immersion Circulator, Thermo Scientific, Newington, NH, USA). A fraction collector (FC 204, Gilson Inc., Middleton, WI, USA) automatically sampled the reservoir fluid at different time points for 24 h, i.e., at 0.5, 1, 1.5, 2, 2.5, 3, 6, 9, 12, 15, 18, 21, and 24 h. PGPE (>95%) and PGEE (>99%) (Chemic Brunschwig AG, Basel, Switzerland) were applied separately onto the skin samples either neat substances or aqueous solutions (Milli-Q Advantage A10 System, Millipore AG, MerckMillipore, Schaffhouse, Switzerland). We applied 500 µL (aqueous application) and 200 µL (neat application) of them to increase the likelihood of reaching steady state permeation conditions. All collected samples were stored at 4 °C after the experiment. […]

Data set [3] can be described thus: Workplace scenario: estimated internal dose and blood concentration after dermal exposure. Further details: species or system human. Conditions: 8 h. On the procedure:
The cumulative amount of PGEE and PGPE in the receptor fluid (µg/cm^2, y-axis) was plotted separately over time (hours, x-axis), and the permeability rate (J), the lag time (Tlag), and the permeability coefficient (Kp) were determined from the generated permeability curve. J (µg/cm^2/h) was calculated as the slope of the steepest linear part of the curve (apparent steady state), and Tlag (h) as its x-axis intercept. Kp (cm/h) was calculated by dividing J with the chemical concentration applied to the skin when diluted in water and with the glycol ether’s density when applied neat. The maximal internal dose in the bloodstream was estimated using the permeability rate obtained for the experiments and calculated as follows:IDmean = J [µg/cm^2/h] × SA [cm^2] × t [h] × P,(1) where IDmean is the mean internal dose of PGEE or PGPE after skin exposure, J is the experimental permeability rate, SA represents the surface area exposed to the solvent, t is the time of exposure, and P represents the average percentage of PGEs in commercialized products. We used the J from the aqueous experiments because PGEs are mostly present in water-based products. The surface area exposed was set to 10.4 cm^2 for the hands alone, and 14.2 cm^2 when including the forearms. The total blood volume used for the blood concentration calculation was 5 L [29]. In Switzerland, paint products on the market for both professional and consumer uses contain, on average, 22.3% of PGEE and/or 5.9% of PGPE [17].
Recreating a workplace scenario, the mean internal dose after one workday for a worker in contact with products containing PGEE or PGPE was estimated based on our results. Mixing tasks are common in companies that use paint products, such as those in the construction and car repair industries. This task usually involves opening containers and mixing large quantities of paint. Workers’ hands, and occasionally forearms, are often contaminated by paint splashes and contact with various painting equipment. Based on our in vitro results and assuming dermal exposure only, after one 8 h workday, with a SA of 10.4 cm^2 and PGEs content of either 22.3% or 5.9%, the mean estimated internal dose for a worker performing a paint mixing task without wearing gloves is 8.3 mg of PGEE (see Equation (1)). This corresponds to a blood concentration of 1.7 mg/L. Under the same conditions, if the worker is exposed to products containing PGPE, the mean estimated internal dose after one workday is 0.9 mg, corresponding to a blood concentration of 0.2 mg/L. The addition of water to the mixture, for example, from perspiration or from the water-based product itself, increases the estimated internal dose to 19.9 mg (3.9 mg/L) for PGEE exposure and 4.1 mg (0.8 mg/L) for PGPE exposure. Some paint products may contain both PGEs mixed with other chemical substances; however, mixtures were not considered in this scenario. Further studies are necessary to investigate the effects of chemical mixtures on glycol ether skin permeation. Furthermore, PGEE and PGPE are volatile organic compounds, so workers can be exposed not only through direct skin contact but also via skin vapor absorption through the skin or inhalation. Therefore, the blood concentrations estimated in our workplace scenario would likely be higher under real working conditions involving all routes of absorption. Since no biological reference values are currently available for these compounds, it is not possible to estimate the potential risks associated with exposure at these blood concentrations. However, due to the high skin permeation of these compounds, workers and consumers must wear appropriate protective equipment to limit their exposure.

The mark [4] stands for this setting: SA 10.4 cm^2, content 22.3% PGEE or 5.9% PGPE, blood volume 5 L, no added water.
Setting [5] is: SA 10.4 cm^2, content 22.3% PGEE or 5.9% PGPE, dermal only, no added water.
Setting [6] is: with addition of water to the mixture, SA 10.4 cm^2, 22.3% PGEE or 5.9% PGPE.

As a reminder, the LogP is the decadic logarithm of the partition coefficient of the neutral form, usually between octanol and water. For `CCOCC(C)O` (stereo not drawn) [PGEE], the LogP in data set [1] is on record as 0.2. In data set [2], the “first quantified in the receptor fluid after application” value is 30 min, the “permeability rate J diluted in water compared to neat” value was “double” and the “time to permeate previously frozen human skin” value is given as no more than 30 min. Moreover, in data set [3] (setting [4]), the estimated blood concentration is 1.7 mg/L. Also, the “mean estimated internal dose after one workday” value (“mean estimated internal dose” for short) in data set [3] (setting [5]) is listed as 8.3 mg. The “mean estimated internal dose” value in data set [3] (setting [6]) was 19.9 mg.

As for `CCCOCC(C)O` (stereo not drawn) [PGPE, propoxypropanol], the LogP in data set [1] is 0.7. For the same compound, in data set [2], the “first quantified in the receptor fluid after application” value was found to be 30 min, the “permeability rate J diluted in water compared to neat” value was “four times greater; also recorded: more than four times quicker” and the “time to permeate previously frozen human skin” value was no more than 30 min. The estimated blood concentration in data set [3] (setting [4]) is reported as 0.2 mg/L. In addition, in data set [3] (setting [5]), the “mean estimated internal dose” value is given as 0.9 mg. In data set [3] (setting [6]), the “mean estimated internal dose” value is given as 4.1 mg. In addition, the estimated blood concentration in data set [3] (with addition of water to the mixture, SA 10.4 cm^2, blood volume 5 L) is 0.8 mg/L.
